# Measured values from ChEMBL document CHEMBL1201862, “PubChem BioAssay data set” (2004).
# Counter-ions that a name gives are not always drawn. The source made the active and inactive calls.
# Experiments:
# [1] = target: T1, Short transient receptor potential channel 4 (Mus musculus, UniProt Q9QUQ5); test: mouse TRPC4 channel inhibitors, dose response, cell-based, HEK293 TRPC4/mu-opioid, Fluo-4 calcium (AID 434942); format: functional;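 also: potency of inhibitors blocking the TRPC4 calcium response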
# T1 sequence (Q9QUQ5 whole entry): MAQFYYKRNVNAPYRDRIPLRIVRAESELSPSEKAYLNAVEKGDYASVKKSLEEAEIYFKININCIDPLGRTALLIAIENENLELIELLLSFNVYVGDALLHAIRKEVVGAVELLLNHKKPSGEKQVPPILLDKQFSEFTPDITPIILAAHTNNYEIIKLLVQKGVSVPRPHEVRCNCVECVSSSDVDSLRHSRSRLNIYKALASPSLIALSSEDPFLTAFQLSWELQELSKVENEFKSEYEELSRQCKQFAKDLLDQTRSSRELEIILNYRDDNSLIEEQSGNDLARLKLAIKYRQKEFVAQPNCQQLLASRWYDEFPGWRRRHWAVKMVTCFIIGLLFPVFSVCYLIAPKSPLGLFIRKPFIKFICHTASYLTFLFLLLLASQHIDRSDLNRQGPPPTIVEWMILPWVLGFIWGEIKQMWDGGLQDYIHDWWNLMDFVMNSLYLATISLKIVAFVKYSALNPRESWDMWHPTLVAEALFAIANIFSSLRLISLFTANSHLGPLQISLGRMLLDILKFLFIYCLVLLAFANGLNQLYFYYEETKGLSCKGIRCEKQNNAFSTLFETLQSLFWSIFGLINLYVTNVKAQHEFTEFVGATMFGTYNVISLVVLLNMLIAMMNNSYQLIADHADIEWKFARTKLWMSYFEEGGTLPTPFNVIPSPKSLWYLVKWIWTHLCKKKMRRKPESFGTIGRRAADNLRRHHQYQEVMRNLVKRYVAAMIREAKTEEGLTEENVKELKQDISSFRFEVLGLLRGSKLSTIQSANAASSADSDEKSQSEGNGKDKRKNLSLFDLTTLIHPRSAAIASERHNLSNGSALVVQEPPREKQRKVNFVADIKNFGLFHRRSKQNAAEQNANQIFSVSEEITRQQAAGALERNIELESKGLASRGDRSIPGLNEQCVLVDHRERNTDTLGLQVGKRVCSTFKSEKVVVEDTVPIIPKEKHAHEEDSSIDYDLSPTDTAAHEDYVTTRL
# [2] = A cytotoxicity screen of small molecule inhibitors of the PhoP region in Salmonella typhi identified in the primary screen. [Related pubchem assays: 1850, 1864, 1985 ]; format: functional
# cells = format: functional
# [3] = THP-1 cell cytotoxicity, dose response, cytotoxicity control for non-replicating M. tuberculosis project (AID 489025); format: functional
# [4] = microbe, parasite or virus in culture; format: functional; details: Mycobacterium tuberculosis
# [5] = target: FAD-linked sulfhydryl oxidase ALR (Homo sapiens, UniProt P55789); test: inhibitors of human ALR sulfhydryl oxidase, dose response, biochemical, H2O2 detection, luminescence, cherry-pick (AID 493248)
# [6] = target: T2, DNA repair protein RAD52 homolog (Homo sapiens, UniProt P43351); format: functional, biochemical
# T2 sequence (P43351 whole entry): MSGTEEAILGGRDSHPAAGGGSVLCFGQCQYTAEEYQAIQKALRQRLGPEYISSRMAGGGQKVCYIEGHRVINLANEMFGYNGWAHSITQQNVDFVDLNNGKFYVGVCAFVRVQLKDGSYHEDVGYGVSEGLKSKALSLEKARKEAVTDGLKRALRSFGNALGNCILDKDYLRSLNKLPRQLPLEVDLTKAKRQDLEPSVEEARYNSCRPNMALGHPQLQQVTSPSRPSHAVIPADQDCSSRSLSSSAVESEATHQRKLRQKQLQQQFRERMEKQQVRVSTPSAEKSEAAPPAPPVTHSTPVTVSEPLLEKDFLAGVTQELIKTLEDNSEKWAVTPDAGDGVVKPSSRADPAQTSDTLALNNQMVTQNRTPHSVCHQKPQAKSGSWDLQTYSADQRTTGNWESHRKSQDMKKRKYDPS
# [7] = growth suppression of PTEN-null colon cells, dose response, cell-based, HCT116 PTEN knockout (AID 1047); format: functional;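 also: HCT116 colon tumor cells with PTEN knocked out; cells exposed to compound for 60 hours before readout; potency for loss of cell viability measured by luminescence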
# [8] = growth suppression of beta-catenin-knockout colon cells, dose response, cell-based, HCT116, human colon tumor (AID 1045); format: functional;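 also: HCT116 colon tumor cells with beta catenin knocked out; cells exposed to compound for 60 hours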
# [9] = target: T3, Polyadenylate-binding protein 1 (Homo sapiens, UniProt P11940); test: PABP1 MLLE–PAM2 binding inhibitor potency, dose response, biochemical, fluorescence polarization, FITC-PAM2 peptide (AID 602259); format: functional; details: read-out: IC50_Mean
# [10] = target: T3, Polyadenylate-binding protein 1; test: PABP1 MLLE–PAM2 interaction inhibitors, dose response, miRNA deadenylation inhibitor project, biochemical, fluorescence polarization, Cy5-PAM2 peptide, secondary (AID 602260); format: functional; details: read-out: IC50_Mean
# [11] = inhibitors of firefly luciferase expression or activity, dose response, H4 neuroglioma cells, luminescence (AID 1990); format: functional, cell-based
# [12] = Luminescence Cell-Based Dose Response HTS to Identify Inhibitors of 5'UTR Stem-Loop Driven Prion Protein mRNA Translation in H4 Neuroglioblastoma Cells. [Related pubchem assays: 1827 (Project Summary), 1813 (Primary HTS)]; format: functional
# [13] = inhibitors of SNCA 5'UTR-driven reporter translation, confirmation, H4 neuroglioma cells, luminescence (AID 1988); format: functional, cell-based
# [14] = cytotoxicity toward NIH3T3 fibroblasts, dose response, counter-screen, cell-based, ATP luminescence, mouse fibroblasts (AID 2010); format: functional;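 also: cells exposed to compound for about 90 hours before reading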
# [15] = NIH-3T3 fibroblast cytotoxicity, dose response, cytotoxicity control, cell-based, fluorescence, Alamar Blue, secondary assay (AID 2327); format: functional;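 also: NIH-3T3 mouse fibroblasts cultured with fluconazole at 8 µg/mL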
# [16] = C. albicans growth with fluconazole, confirmation, fluorescence, retest (AID 2467); format: functional, cell-based
# [17] = inhibitors of intracellular T. cruzi replication, confirmation, NIH3T3 host cells, beta-gal luminescence (AID 2044); format: functional, cell-based;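 also: intracellular parasites grown in NIH/3T3 mouse fibroblasts as host cells; luminescent beta-galactosidase reporter signal from transgenic T. cruzi replicating inside host cells; inhibitors lower the luminescence signal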
# Caspase-6 = target: T4, Caspase-6 (Homo sapiens, UniProt P55212); test: human caspase-6 inhibitors, dose response, biochemical, VEID-R110 fluorescence, cherry-pick (AID 720632)
# T4 sequence (P55212 whole entry): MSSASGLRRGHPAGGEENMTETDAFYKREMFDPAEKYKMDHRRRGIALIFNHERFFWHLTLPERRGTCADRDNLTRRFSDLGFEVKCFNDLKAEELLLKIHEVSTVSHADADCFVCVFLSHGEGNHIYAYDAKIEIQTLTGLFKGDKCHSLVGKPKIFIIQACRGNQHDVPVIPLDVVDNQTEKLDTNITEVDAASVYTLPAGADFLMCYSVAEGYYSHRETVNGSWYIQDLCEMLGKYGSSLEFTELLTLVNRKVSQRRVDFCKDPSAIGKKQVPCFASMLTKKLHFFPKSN
# [18] = target: T5, Rac GTPase-activating protein 1 (Homo sapiens, UniProt Q9H0H5); test: MgcRacGAP GTPase-activating activity inhibitors, confirmation, biochemical, ADP Hunter fluorescence, primary and confirmatory (AID 624330); format: functional
# T5 sequence (Q9H0H5 whole entry): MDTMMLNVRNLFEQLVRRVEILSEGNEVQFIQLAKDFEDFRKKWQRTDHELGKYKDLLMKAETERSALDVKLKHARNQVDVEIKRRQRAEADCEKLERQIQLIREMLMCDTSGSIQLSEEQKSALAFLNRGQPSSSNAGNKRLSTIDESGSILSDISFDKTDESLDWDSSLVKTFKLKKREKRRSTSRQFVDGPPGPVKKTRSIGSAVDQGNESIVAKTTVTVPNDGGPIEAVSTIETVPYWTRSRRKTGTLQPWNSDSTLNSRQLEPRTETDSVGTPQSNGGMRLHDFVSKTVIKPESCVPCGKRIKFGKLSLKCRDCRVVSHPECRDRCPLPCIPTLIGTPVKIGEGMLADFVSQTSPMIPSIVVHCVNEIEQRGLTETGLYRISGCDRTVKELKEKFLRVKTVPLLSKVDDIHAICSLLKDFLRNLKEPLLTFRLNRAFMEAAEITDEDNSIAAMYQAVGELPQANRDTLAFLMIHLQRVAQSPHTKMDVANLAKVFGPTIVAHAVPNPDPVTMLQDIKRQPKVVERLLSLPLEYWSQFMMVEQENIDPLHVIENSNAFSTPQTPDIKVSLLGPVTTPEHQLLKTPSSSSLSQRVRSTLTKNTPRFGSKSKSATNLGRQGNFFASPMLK
# [19] = Luminescence Cell-Based Dose Confirmation HTS to Identify Inhibitors of Platelet Dense Granule Release. [Related pubchem assays: 1663 (Primary HTS), 1678 (Summary of Project)]; format: functional
# [20] = target: Luciferin 4-monooxygenase (Photinus pyralis, UniProt P08659); test: firefly luciferase enzyme inhibitors, dose response, biochemical, luminescence (AID 1891)
# Luciferin 4-monooxygenase, sequence (P08659 whole entry): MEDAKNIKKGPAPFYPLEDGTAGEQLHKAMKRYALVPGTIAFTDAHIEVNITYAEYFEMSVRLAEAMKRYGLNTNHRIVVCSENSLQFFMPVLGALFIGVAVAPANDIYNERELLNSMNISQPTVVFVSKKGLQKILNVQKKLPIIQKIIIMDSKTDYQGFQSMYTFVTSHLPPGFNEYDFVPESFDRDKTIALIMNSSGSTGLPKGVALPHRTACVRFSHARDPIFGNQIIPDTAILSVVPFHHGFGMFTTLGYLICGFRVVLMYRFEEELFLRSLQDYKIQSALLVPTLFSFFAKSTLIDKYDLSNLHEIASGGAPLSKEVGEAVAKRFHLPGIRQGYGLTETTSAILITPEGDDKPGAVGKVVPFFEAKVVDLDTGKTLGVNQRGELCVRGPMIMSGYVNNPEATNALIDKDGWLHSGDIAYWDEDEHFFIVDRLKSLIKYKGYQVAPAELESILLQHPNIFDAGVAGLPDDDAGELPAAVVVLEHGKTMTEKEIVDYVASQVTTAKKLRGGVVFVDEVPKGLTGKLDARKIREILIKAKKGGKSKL
# FAD-linked sulfhydryl oxidase ALR, sequence (P55789 whole entry): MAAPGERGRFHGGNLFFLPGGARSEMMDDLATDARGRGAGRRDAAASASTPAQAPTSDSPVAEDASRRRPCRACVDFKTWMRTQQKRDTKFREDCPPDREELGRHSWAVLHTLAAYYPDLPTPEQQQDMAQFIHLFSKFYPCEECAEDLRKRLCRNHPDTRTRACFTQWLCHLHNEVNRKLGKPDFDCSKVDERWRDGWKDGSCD
# T3 sequence (P11940 whole entry): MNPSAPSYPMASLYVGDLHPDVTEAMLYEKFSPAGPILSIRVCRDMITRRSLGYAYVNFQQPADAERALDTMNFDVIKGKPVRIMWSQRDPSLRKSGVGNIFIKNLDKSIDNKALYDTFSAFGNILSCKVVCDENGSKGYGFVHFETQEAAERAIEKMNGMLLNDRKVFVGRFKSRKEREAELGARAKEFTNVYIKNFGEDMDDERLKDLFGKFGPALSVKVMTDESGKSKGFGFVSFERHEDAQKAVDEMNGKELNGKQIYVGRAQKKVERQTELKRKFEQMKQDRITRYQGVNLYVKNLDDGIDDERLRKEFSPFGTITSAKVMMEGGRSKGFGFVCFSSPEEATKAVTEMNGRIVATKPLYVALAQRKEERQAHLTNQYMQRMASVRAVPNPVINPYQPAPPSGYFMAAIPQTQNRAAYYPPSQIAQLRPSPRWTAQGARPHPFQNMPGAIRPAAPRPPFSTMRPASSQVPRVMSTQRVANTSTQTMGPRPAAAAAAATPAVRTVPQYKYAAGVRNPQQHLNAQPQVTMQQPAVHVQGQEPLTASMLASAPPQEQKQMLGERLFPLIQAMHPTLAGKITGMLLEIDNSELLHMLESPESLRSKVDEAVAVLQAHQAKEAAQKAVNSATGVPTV
structure (smiles),measurement,setting,value
COc1ccc(CN2CCN(C(=O)c3ccc(F)cc3)CC2)c(OC)c1,EC50,[1],3.76 µM (active)
CCCC(c1nnnn1Cc1ccc(OC)cc1)N1CCN(c2ccccc2OC)CC1 (stereo not given),EC50,[2],> 50 µM (active)
Cc1ccc2c(c1)N(C(=O)CCC(=O)Nc1ccccc1Cl)CC(C)O2 (stereo not given),EC50,[1],1.5 µM (active)
COc1ccc(OC)c(S(=O)(=O)N2CCC(C(=O)NCCc3ccc(OC)c(OC)c3)CC2)c1,EC50,[2],> 50 µM (active)
O=C(Cc1ccccc1)N1CCN(Cc2cccc(Br)c2)CC1,EC50,[1],13.3 µM (active)
N#Cc1nc(-c2ccc(OCc3ccccc3)cc2)oc1NCCCn1ccnc1,IC50,cells,46.5 µM (active)
same,CC50,[3],24.7 µM (active)
same,CC50,[4],> 40 µM (active)
CC(C)(C)Nc1nc(NC(C)(C)C)nc(-n2ccnc2)n1,IC50,cells,22.9 µM (active)
same,CC50,[3],> 40 µM (active)
NNC(=O)CCc1nc2ccc(O)cc2[nH]1,AC50,[5],3.82 µM (active)
Cc1cc(N)ccc1NC(=O)CN1CCCC1,AC50,[6],1.73 µM (active)
NC(=O)SCC(=O)Nc1ccc(Cl)c(Cl)c1,EC50,[7],50.8 µM (active)
same,EC50,[8],31 µM (active)
same,EC50,[2],> 50 µM (active)
same,IC50,[9],> 66 µM (inactive)
same,IC50,[10],> 66 µM (inactive)
Oc1cnnc(Nc2ccc(Nc3ccccc3)cc2)n1,AC50,[5],0.323 µM (active)
CN(C)c1ccc(C(=S)N2CCNCC2)cc1,AC50,[5],2.18 µM (active)
OCCN1CCN(CC(O)COc2ccc(C34CC5CC(CC(C5)C3)C4)cc2)CC1 (stereo not given),EC50,[11],> 120 µM (not active)
same,AC50,[6],16 µM (active)
same,EC50,[12],> 120 µM (not active)
same,EC50,[13],> 120 µM (not active)
COc1cccc(C(=O)N2CCCC(Nc3ccc(C)c(C)c3)C2)c1 (stereo not given),AC50,[5],7.17 µM (active)
CC(=O)c1ccc(-[n+]2cc(-c3ccc(C(C)(C)C)cc3)n3c2SCCC3)cc1,EC50,[14],> 60 µM (not active)
same,IC50,cells,20.9 µM (active)
same,CC50,[3],11.4 µM (active)
same,EC50,[15],> 150 µM (inactive)
same,EC50,[16],2.03 µM (active)
same,CC50,[4],> 40 µM (active)
same,EC50,[17],0.443 µM (active)
CCOc1c(Cl)cc(CNCC(O)c2ccccc2)cc1OC (stereo not given),EC50,[1],2.11 µM (active)
COc1cc(C(=O)NCC(c2ccco2)N2CCc3ccccc32)cc(OC)c1OC (stereo not given),AC50,[5],5.5 µM (active)
Cc1cccc(-n2nc(C)c3c(C(=O)O)cc(-c4cccs4)nc32)c1,EC50,[1],2.99 µM (active)
O=S(=O)(c1ccccc1)N1CCN(C/C=C/c2ccccc2)CC1,EC50,[1],5.96 µM (active)
CCC(Sc1nc2cc[nH]cc-2n1)C(=O)Nc1ccc(C)c(Cl)c1 (stereo not given),EC50,[14],> 60 µM (not active)
same,EC50,[2],> 50 µM (active)
same,EC50,[17],2.06 µM (active)
NC(=O)C1C(=O)c2ccccc2C1(C[N+](=O)[O-])c1ccccc1 (stereo not given),AC50,Caspase-6,38.1 µM (active)
Cn1c(N)c(N=O)c(=O)n(C)c1=S,AC50,Caspase-6,6.37 µM (active)
Cc1cc(-c2c(C)[nH]n(-c3ccccc3)c2=O)[nH]n1,IC50,cells,5.35 µM (active)
same,CC50,[3],> 40 µM (active)
same,AC50,[5],5.41 µM (active)
same,CC50,[4],33 µM (active)
CC12CCC(C(=O)N/N=C/c3ccc(O)cc3)(OC1=O)C2(C)C (stereo not given),AC50,[5],0.099 µM (active)
Cc1nc2ccc(-c3nc4cc(N)ccc4[nH]3)cc2[nH]1,EC50,[11],> 120 µM (not active)
same,IC50,[18],54 µM (active)
same,AC50,[5],0.736 µM (active)
same,EC50,[12],16.6 µM (active)
same,EC50,[13],38 µM (active)
O=C(/C=C/c1ccc(O)cc1)c1ccccc1 [4-HYDROXYCHALCONE],EC50,[2],> 50 µM (active)
same,EC50,[19],< 0.701 µM (active)
same,EC50,[20],< 0.088 µM (active)
C[C@](N)(Cc1ccc(O)c(O)c1)C(=O)O [METHYLDOPA],AC50,Caspase-6,39.2 µM (active)
CC[C@@H](CO)NC(=O)[C@@H]1C=C2c3cccc4[nH]cc(c34)C[C@H]2N(C)C1 [METHYLERGONOVINE MALEATE],AC50,Caspase-6,7.04 µM (active)
